Measured values as given in article PMC5218480 (PLoS ONE, 2017).

System: MV-4-11 cells
Experiment: Gene expression microarray analysis (Affymetrix PrimeView) and GSEA
Type: cell-based, human
Parameters: RFU PODN (11730768_x_at) / Fold change /veh PODN (11730768_x_at) / RFU LINC00158 (11744669_a_at) / Fold change /veh LINC00158 (11744669_a_at) / RFU DUSP10 (11751237_a_at) / Fold change /veh DUSP10 (11751237_a_at) / RFU ID3 (11757404_x_at) / Fold change /veh ID3 (11757404_x_at) / RFU PLEKHG5 (11737974_s_at) / Fold change /veh PLEKHG5 (11737974_s_at) / RFU LRRC4B (11730491_at) / Fold change /veh LRRC4B (11730491_at) / RFU GIMAP4 (11747438_a_at) / Fold change /veh GIMAP4 (11747438_a_at) / RFU KRT8 (11758183_x_at) / Fold change /veh KRT8 (11758183_x_at) / RFU CNN1 (11734310_a_at) / Fold change /veh CNN1 (11734310_a_at) / RFU VPS37D (11726825_at) / Fold change /veh VPS37D (11726825_at) / RFU C10orf10 (11716522_x_at) / Fold change /veh C10orf10 (11716522_x_at) / RFU KIR2DL2 /// KIR2DL4 /// KIR2DL5A /// KIR2DL5B /// KIR2DS1 /// KIR2DS2 /// KIR2DS3 /// KIR2DS4 /// KIR3DL3 /// KIR3DL3 /// KIR3DS1 (11738374_at) / Fold change /veh KIR2DL2 /// KIR2DL4 /// KIR2DL5A /// KIR2DL5B /// KIR2DS1 /// KIR2DS2 /// KIR2DS3 /// KIR2DS4 /// KIR3DL3 /// KIR3DL3 /// KIR3DS1 (11738374_at) / RFU C1QL1 (11718748_at) / Fold change /veh C1QL1 (11718748_at) / RFU TMPRSS4 (11747572_a_at) / Fold change /veh TMPRSS4 (11747572_a_at) / RFU HAMP (11756126_x_at) / Fold change /veh HAMP (11756126_x_at) / RFU RNFT2 (11725882_a_at) / Fold change /veh RNFT2 (11725882_a_at) / RFU NR4A2 (11747474_a_at) / Fold change /veh NR4A2 (11747474_a_at) / RFU ABCC12 (11746883_a_at) / Fold change /veh ABCC12 (11746883_a_at) / RFU TMEM136 (11760407_x_at) / Fold change /veh TMEM136 (11760407_x_at) / RFU CLDN22 /// WWC2 (11732394_at) / Fold change /veh CLDN22 /// WWC2 (11732394_at) / RFU HLA-DPB1 (11760878_x_at) / Fold change /veh HLA-DPB1 (11760878_x_at) / RFU SPINT1 (11716480_a_at) / Fold change /veh SPINT1 (11716480_a_at) / RFU GAP43 (11754022_s_at) / Fold change /veh GAP43 (11754022_s_at) / RFU A4GNT (11735810_at) / Fold change /veh A4GNT (11735810_at) / RFU PRB3 (11715151_x_at) / Fold change /veh PRB3 (11715151_x_at) / RFU TUBB4B (11761932_at) / Fold change /veh TUBB4B (11761932_at) / RFU CAPN14 (11732068_a_at) / Fold change /veh CAPN14 (11732068_a_at) / RFU TMCC2 (11721928_a_at) / Fold change /veh TMCC2 (11721928_a_at) / RFU IRGQ (11745062_a_at) / Fold change /veh IRGQ (11745062_a_at) / RFU FAM174B (11720279_a_at) / Fold change /veh FAM174B (11720279_a_at) / RFU TMPRSS4 (11748680_a_at) / Fold change /veh TMPRSS4 (11748680_a_at) / RFU FAM212B (11763350_a_at) / Fold change /veh FAM212B (11763350_a_at) / RFU PLEKHG5 (11743358_a_at) / Fold change /veh PLEKHG5 (11743358_a_at) / RFU ZSCAN30 (11745921_a_at) / Fold change /veh ZSCAN30 (11745921_a_at) / RFU CMKLR1 (11741424_a_at) / Fold change /veh CMKLR1 (11741424_a_at) / RFU LOC101060620 /// MAPK8IP1 (11723275_at) / Fold change /veh LOC101060620 /// MAPK8IP1 (11723275_at) / RFU SPTSSB (11747773_x_at) / Fold change /veh SPTSSB (11747773_x_at) / RFU PRSS12 (11739890_at) / Fold change /veh PRSS12 (11739890_at) / RFU BIN1 (11741810_x_at) / Fold change /veh BIN1 (11741810_x_at) / RFU WNT11 (11732464_a_at) / Fold change /veh WNT11 (11732464_a_at) / RFU C10orf10 (11716521_a_at) / Fold change /veh C10orf10 (11716521_a_at) / RFU C5orf56 (11738089_at) / Fold change /veh C5orf56 (11738089_at) / RFU CYB561 (11721691_x_at) / Fold change /veh CYB561 (11721691_x_at) / RFU ANKRD19P (11752326_a_at) / Fold change /veh ANKRD19P (11752326_a_at) / RFU OR2T12 /// OR2T33 /// OR2T8 (11738714_s_at) / Fold change /veh OR2T12 /// OR2T33 /// OR2T8 (11738714_s_at) / RFU VCAN (11748164_a_at) / Fold change /veh VCAN (11748164_a_at) / RFU JSRP1 (11732532_at) / Fold change /veh JSRP1 (11732532_at) / RFU KRTAP10-11 (11738290_x_at) / Fold change /veh KRTAP10-11 (11738290_x_at) / RFU MYO3A (11730013_a_at) / Fold change /veh MYO3A (11730013_a_at) / RFU EBF3 (11725865_a_at) / Fold change /veh EBF3 (11725865_a_at) / RFU CAMK2N1 (11719241_x_at) / Fold change /veh CAMK2N1 (11719241_x_at) / RFU C5orf56 (11738088_a_at) / Fold change /veh C5orf56 (11738088_a_at) / RFU OLFML3 (11715873_a_at) / Fold change /veh OLFML3 (11715873_a_at) / RFU LOC100653217 /// NTM (11731650_a_at) / Fold change /veh LOC100653217 /// NTM (11731650_a_at) / RFU MAPK11 (11762145_a_at) / Fold change /veh MAPK11 (11762145_a_at) / RFU FIZ1 (11724087_x_at) / Fold change /veh FIZ1 (11724087_x_at) / RFU OASL (11726364_x_at) / Fold change /veh OASL (11726364_x_at) / RFU SOX15 (11748057_x_at) / Fold change /veh SOX15 (11748057_x_at) / RFU CD79A (11719716_a_at) / Fold change /veh CD79A (11719716_a_at) / RFU HIST1H1D (11736915_at) / Fold change /veh HIST1H1D (11736915_at) / RFU CASKIN2 (11723855_a_at) / Fold change /veh CASKIN2 (11723855_a_at) / RFU LOC730098 (11760151_x_at) / Fold change /veh LOC730098 (11760151_x_at) / RFU OR4N2 (11742367_at) / Fold change /veh OR4N2 (11742367_at) / RFU PRRT2 (11749266_a_at) / Fold change /veh PRRT2 (11749266_a_at) / RFU SNX32 (11753110_a_at) / Fold change /veh SNX32 (11753110_a_at) / RFU CDHR5 (11726645_a_at) / Fold change /veh CDHR5 (11726645_a_at) / RFU RCAN1 (11760418_a_at) / Fold change /veh RCAN1 (11760418_a_at) / RFU FAM167A (11723789_a_at) / Fold change /veh FAM167A (11723789_a_at) / RFU FAM26E (11764081_at) / Fold change /veh FAM26E (11764081_at) / RFU ISYNA1 (11749810_s_at) / Fold change /veh ISYNA1 (11749810_s_at) / RFU ACY1 (11761880_at) / Fold change /veh ACY1 (11761880_at) / RFU 11764098_at / Fold change /veh 11764098_at / RFU SAMD14 (11745864_x_at) / Fold change /veh SAMD14 (11745864_x_at) / RFU NPB (11741838_a_at) / Fold change /veh NPB (11741838_a_at) / RFU TMPRSS6 (11731388_a_at) / Fold change /veh TMPRSS6 (11731388_a_at) / RFU KRTAP10-2 (11738614_at) / Fold change /veh KRTAP10-2 (11738614_at) / RFU ARHGAP8 /// PRR5-ARHGAP8 (11727945_x_at) / Fold change /veh ARHGAP8 /// PRR5-ARHGAP8 (11727945_x_at) / RFU KRTAP5-7 /// NADSYN1 (11734609_at) / Fold change /veh KRTAP5-7 /// NADSYN1 (11734609_at) / RFU RASL12 (11751679_a_at) / Fold change /veh RASL12 (11751679_a_at) / RFU CDKN2B (11736163_a_at) / Fold change /veh CDKN2B (11736163_a_at) / RFU PRF1 (11729649_at) / Fold change /veh PRF1 (11729649_at) / RFU, ZNF638 /// ZNF638-IT1 / Fold change vs veh, ZNF638 /// ZNF638-IT1 / RFU, PANK3 / Fold change vs veh, PANK3 / RFU, SH3YL1 / Fold change vs veh, SH3YL1 / RFU, ZEB2 / Fold change vs veh, ZEB2 / RFU, NRIP1 / Fold change vs veh, NRIP1 / RFU, PTTG1IP / Fold change vs veh, PTTG1IP / RFU, CAPN2 / Fold change vs veh, CAPN2 / RFU, MED14 / Fold change vs veh, MED14 / RFU, SNORA58 / Fold change vs veh, SNORA58 / RFU, C1orf63 / Fold change vs veh, C1orf63 / RFU, LRRFIP1 / Fold change vs veh, LRRFIP1 / RFU, NDUFAF7 / Fold change vs veh, NDUFAF7 / RFU, SLC12A2 / Fold change vs veh, SLC12A2 / RFU, IBTK / Fold change vs veh, IBTK / RFU, ESF1 / Fold change vs veh, ESF1 / Fold change vs veh, TMEM50B / RFU, TAOK1 / Fold change vs veh, TAOK1 / RFU, ACBD3 / Fold change vs veh, ACBD3 / RFU, TMA16 / Fold change vs veh, TMA16 / RFU, RWDD3 / Fold change vs veh, RWDD3 / RFU, BCAT1 / Fold change vs veh, BCAT1 / RFU, EDEM3 / Fold change vs veh, EDEM3 / RFU, TMEM33 / Fold change vs veh, TMEM33 / RFU, WDR75 / Fold change vs veh, WDR75 / RFU, AHCTF1 / Fold change vs veh, AHCTF1 / RFU, TFRC / Fold change vs veh, TFRC / RFU, ZDHHC17 / Fold change vs veh, ZDHHC17 / RFU, NOM1 / Fold change vs veh, NOM1 / RFU, ARL8B / Fold change vs veh, ARL8B / RFU, ZBTB11 / Fold change vs veh, ZBTB11 / RFU, TAMM41 / Fold change vs veh, TAMM41 / RFU, KIAA1704 /// LOC100996395 / Fold change vs veh, KIAA1704 /// LOC100996395 / RFU, ING1 / Fold change vs veh, ING1 / RFU, TRMT61B / Fold change vs veh, TRMT61B / RFU, FUBP3 / Fold change vs veh, FUBP3 / RFU, TP53 / Fold change vs veh, TP53 / RFU, TNKS2 / Fold change vs veh, TNKS2 / RFU, ZFP14 / Fold change vs veh, ZFP14 / RFU, ACTR2 / Fold change vs veh, ACTR2 / RFU, PPP3R1 / Fold change vs veh, PPP3R1 / RFU, PIK3R1 / Fold change vs veh, PIK3R1 / RFU, HNRNPA1 / Fold change vs veh, HNRNPA1 / RFU, RNF170 / Fold change vs veh, RNF170 / RFU, ZNF28 / Fold change vs veh, ZNF28 / RFU, RNGTT / Fold change vs veh, RNGTT / RFU, OGT / Fold change vs veh, OGT / RFU, BRD1 / Fold change vs veh, BRD1 / RFU, MARS / Fold change vs veh, MARS / RFU, ZNF655 / Fold change vs veh, ZNF655 / RFU, FAHD1 / Fold change vs veh, FAHD1 / RFU, BDP1 / Fold change vs veh, BDP1 / RFU, LRRCC1 / Fold change vs veh, LRRCC1 / RFU, ARID1A / Fold change vs veh, ARID1A / RFU, ZNF146 / Fold change vs veh, ZNF146 / RFU, ZNF330 / Fold change vs veh, ZNF330 / RFU, GPN3 / Fold change vs veh, GPN3 / RFU, C9orf123 / Fold change vs veh, C9orf123 / RFU, N4BP2L2 / Fold change vs veh, N4BP2L2 / RFU, ARFIP1 / Fold change vs veh, ARFIP1 / RFU, FAM179B / Fold change vs veh, FAM179B / RFU, BCL10 / Fold change vs veh, BCL10 / RFU, UHRF1BP1L / Fold change vs veh, UHRF1BP1L / RFU, BET1 / Fold change vs veh, BET1 / RFU, CNOT2 / Fold change vs veh, CNOT2 / RFU, ZNF268 / Fold change vs veh, ZNF268 / Fold change vs veh, ZNF507 / RFU, DGCR2 / Fold change vs veh, DGCR2 / RFU, WDSUB1 / Fold change vs veh, WDSUB1 / Fold change vs veh, HSP90B1 /// MIR3652 / RFU, ADSS / Fold change vs veh, ADSS / RFU, GK / Fold change vs veh, GK / RFU, ZNF148 / Fold change vs veh, ZNF148 / RFU, TAF9 / Fold change vs veh, TAF9 / RFU, SLC1A5 / Fold change vs veh, SLC1A5 / RFU, SLMO2 / Fold change vs veh, SLMO2 / RFU, ABCC4 / Fold change vs veh, ABCC4 / RFU, LOC101060439 /// RAP1B / Fold change vs veh, LOC101060439 /// RAP1B / RFU, RFX7 / Fold change vs veh, RFX7 / RFU, GTPBP10 / Fold change vs veh, GTPBP10 / RFU, CNEP1R1 / Fold change vs veh, CNEP1R1 / RFU, BIVM-ERCC5 /// ERCC5 / Fold change vs veh, BIVM-ERCC5 /// ERCC5 / RFU, ILF3 / Fold change vs veh, ILF3 / RFU 11762660_at / Fold change /veh 11762660_at / RFU VCAN (11757783_s_at) / Fold change /veh VCAN (11757783_s_at) / RFU DDX43 (11728927_at) / Fold change /veh DDX43 (11728927_at) / RFU KRT8 (11758188_x_at) / Fold change /veh KRT8 (11758188_x_at) / RFU NKD1 (11759106_at) / Fold change /veh NKD1 (11759106_at) / RFU SRD5A1 (11742802_a_at) / Fold change /veh SRD5A1 (11742802_a_at) / RFU TPSAB1 /// TPSB2 (11721975_s_at) / Fold change /veh TPSAB1 /// TPSB2 (11721975_s_at) / RFU GSTM3 (11746129_a_at) / Fold change /veh GSTM3 (11746129_a_at) / RFU IL23R (11737362_x_at) / Fold change /veh IL23R (11737362_x_at) / RFU TMEM51 (11727254_a_at) / Fold change /veh TMEM51 (11727254_a_at) / RFU PIWIL2 (11732686_x_at) / Fold change /veh PIWIL2 (11732686_x_at) / RFU ORM1 (11744905_x_at) / Fold change /veh ORM1 (11744905_x_at) / RFU CCDC152 (11743942_at) / Fold change /veh CCDC152 (11743942_at) / RFU ECM1 (11717891_a_at) / Fold change /veh ECM1 (11717891_a_at) / RFU IL23R (11748794_a_at) / Fold change /veh IL23R (11748794_a_at) / RFU TNFAIP8L3 (11732012_x_at) / Fold change /veh TNFAIP8L3 (11732012_x_at) / RFU MBOAT4 (11741988_at) / Fold change /veh MBOAT4 (11741988_at) / RFU 11764193_at / Fold change /veh 11764193_at / RFU TMEM53 (11763286_at) / Fold change /veh TMEM53 (11763286_at) / RFU MAGEB2 (11727129_at) / Fold change /veh MAGEB2 (11727129_at) / RFU TMEM200A (11744735_a_at) / Fold change /veh TMEM200A (11744735_a_at) / RFU CCDC152 (11751479_a_at) / Fold change /veh CCDC152 (11751479_a_at) / RFU FAM211A (11726209_a_at) / Fold change /veh FAM211A (11726209_a_at) / RFU RGS16 (11746705_a_at) / Fold change /veh RGS16 (11746705_a_at) / RFU VCAN (11755009_s_at) / Fold change /veh VCAN (11755009_s_at) / RFU RHOB (11743442_s_at) / Fold change /veh RHOB (11743442_s_at) / RFU RGS16 (11720943_a_at) / Fold change /veh RGS16 (11720943_a_at) / RFU RGS16 (11720944_at) / Fold change /veh RGS16 (11720944_at) / RFU, VPS4B / Fold change vs veh, VPS4B / RFU, CREB1 / Fold change vs veh, CREB1 / RFU, DNAJC13 / Fold change vs veh, DNAJC13 / RFU, GNAQ / Fold change vs veh, GNAQ / RFU, CDK5R1 / Fold change vs veh, CDK5R1 / RFU, ZRANB3 / Fold change vs veh, ZRANB3 / RFU, CUL4A / Fold change vs veh, CUL4A / RFU, CCNY / Fold change vs veh, CCNY / RFU, UFL1 / Fold change vs veh, UFL1 / RFU, COG3 / Fold change vs veh, COG3 / RFU, DIAPH2 / Fold change vs veh, DIAPH2 / RFU, SKA2 / Fold change vs veh, SKA2 / RFU, AFF3 / Fold change vs veh, AFF3 / RFU, LMF1 / Fold change vs veh, LMF1 / RFU, IPO11 / Fold change vs veh, IPO11 / RFU, DFFB / Fold change vs veh, DFFB / RFU, FOXP1 / Fold change vs veh, FOXP1 / RFU, CARD8 / Fold change vs veh, CARD8 / RFU, STRN3 / Fold change vs veh, STRN3 / RFU, ADK / Fold change vs veh, ADK / RFU, RASSF2 / Fold change vs veh, RASSF2 / RFU, WIPF1 / Fold change vs veh, WIPF1 / RFU, LARP1B / Fold change vs veh, LARP1B / RFU, RASA1 / Fold change vs veh, RASA1 / RFU, RB1 / Fold change vs veh, RB1 / RFU, PPFIA1 / Fold change vs veh, PPFIA1 / RFU, MAT2A / Fold change vs veh, MAT2A / RFU, CCT5 / Fold change vs veh, CCT5 / RFU, WDR92 / Fold change vs veh, WDR92 / RFU, CUX1 / Fold change vs veh, CUX1 / RFU, TTC7A / Fold change vs veh, TTC7A / RFU, TMEM135 / Fold change vs veh, TMEM135 / RFU, DEPTOR / Fold change vs veh, DEPTOR / RFU, CPM / Fold change vs veh, CPM / RFU, DNAJB6 / Fold change vs veh, DNAJB6 / RFU, CACNA2D3 / Fold change vs veh, CACNA2D3 / RFU, DTX4 / Fold change vs veh, DTX4 / RFU, TFCP2 / Fold change vs veh, TFCP2 / RFU, GMCL1 /// GMCL1P1 / Fold change vs veh, GMCL1 /// GMCL1P1 / RFU, AEBP2 / Fold change vs veh, AEBP2 / RFU, SNHG1 /// SNORD22 /// SNORD25 /// SNORD26 /// SNORD27 /// SNORD28 /// SNORD29 /// SNORD31 / Fold change vs veh, SNHG1 /// SNORD22 /// SNORD25 /// SNORD26 /// SNORD27 /// SNORD28 /// SNORD29 /// SNORD31 / Fold change (Aza/veh), C12orf56 (ProbeSet 11735607_a_at) / Fold change (ACY-1035/veh), C12orf56 (ProbeSet 11735607_a_at) / Fold change (Aza/veh), FGFR1OP (ProbeSet 11751329_s_at) / Fold change (ACY-1035/veh), FGFR1OP (ProbeSet 11751329_s_at) / Fold change (Aza/veh), VPS36 (ProbeSet 11739960_a_at) / Fold change (ACY-1035/veh), VPS36 (ProbeSet 11739960_a_at) / RFU SYPL1 (11715823_x_at) / Fold change /veh SYPL1 (11715823_x_at) / RFU IGFBP7 (11715501_s_at) / Fold change /veh IGFBP7 (11715501_s_at) / RFU REEP3 (11722064_at) / Fold change /veh REEP3 (11722064_at) / RFU IGLL1 (11728026_x_at) / Fold change /veh IGLL1 (11728026_x_at): dose or concentration left out as unconfirmed
Details: MV-4-11 cells, 48 hours

Nc1ccc(-c2cccs2)cc1NC(=O)c1ccc2c(c1)cc(C1CC1)n2CCN1CCOCC1 [ACY-1035]
RFU TMEM51 (11727254_a_at): 14.11 RFU
